Calls of active or inactive are those of the source. No rule for the calls is given here.
Target: Influenza A virus M2 proton channel (A/TW/4845/1999 H1N1)
Test: NMR binding screen, influenza A virus M2 proton channel, Kd (AID 1549)
Settings: M2 protein

With `Cc1ncc(CC(=O)O)s1` the Kd was > 4 mM (inactive).
With `CC(C)=CC1C(CO)C1(C)C` (centres undefined) the Kd was > 4 mM (inactive).
For `N#Cc1cc2c(nc1SCc1ccncc1)CCC2`, the Kd was > 4 mM (inactive).
For `Cc1ccc(SCC(=O)N2CCOCC2)cc1`, the Kd was > 4 mM (inactive).
With `Cn1c(SCC(N)=O)nc2c1c(=O)[nH]c(=O)n2C` the Kd was > 4 mM (inactive).
`COc1ccc2c(c1OC)C(=O)N(c1ncn[nH]1)C2` was tested, and the Kd was > 4 mM (inactive).
For `COC(=O)c1ccc(/C=C2/NC(=S)NC2=O)cc1`, the Kd was > 4 mM (inactive).
`O=C1CCC(=O)N1c1nc2ccccc2s1` was tested, and the Kd was > 4 mM (inactive).
`COc1ccc(C)cc1-n1c(-c2ccncc2)n[nH]c1=S` was tested, and the Kd was > 4 mM (inactive).
With `O=C1NC(=S)N/C1=C\c1cccc([N+](=O)[O-])c1` the Kd was > 4 mM (inactive).
In the case of `Cc1ccccc1NC(=O)c1ccccc1`, the Kd is reported as > 4 mM (inactive).
For `CN(C)C(=S)Nc1ccc([N+](=O)[O-])cc1`, the Kd was > 4 mM (inactive).
`c1ccc2[nH]c(NCCN3CCOCC3)nc2c1` was tested, and the Kd was > 4 mM (inactive).
In the case of `Nc1cccc(OC(F)(F)F)c1`, the Kd is reported as > 4 mM (inactive).
In the case of `NC(Cn1ccc(=O)c(O)c1)C(=O)O` (centres undefined), the Kd is reported as > 4 mM (inactive).
For `CCn1c(=O)cc(N2CCC3(CC2)OCCO3)[nH]c1=O`, the Kd was > 4 mM (inactive).
With `CCn1ncc(Cl)c1C(=O)Nc1ccncc1` the Kd was > 4 mM (inactive).
In the case of `CN(C)c1nc(N)nc(Cn2ccnc2)n1`, the Kd is reported as > 4 mM (inactive).
`Clc1ccccc1OCc1nc(-c2ccccn2)no1` was tested, and the Kd was > 4 mM (inactive).
In the case of `CC(=O)N1C(=S)NC(=O)/C1=C\c1cccnc1`, the Kd is reported as > 4 mM (inactive).
With `CC(=O)O[C@@H]1CC2C(C)(C)C=CC(=O)[C@]2(C)C2CC[C@@]3(C)[C@H](c4ccoc4)OC(=O)C4OC43[C@@]21C` (some centres undefined) the Kd was > 4 mM (inactive).
With `CN1CCN(C(=S)NC(=O)c2ccn(C)n2)CC1` the Kd was > 4 mM (inactive).
In the case of `Cn1nnc2c(Cl)ncnc21`, the Kd is reported as > 4 mM (inactive).
`O=S(=O)(Nc1ccc2c(c1)OCCO2)c1cccs1` was tested, and the Kd was > 4 mM (inactive).
`O=C(Nc1ccccc1)NC1CCS(=O)(=O)C1` (centres undefined) was tested, and the Kd was > 4 mM (inactive).
`COc1ccc(/C=C2\NC(=S)N(C)C2=O)cc1O` was tested, and the Kd was > 4 mM (inactive).
In the case of `CN1C(=O)C2C=CC1C1C(=O)N(c3ccccc3)C(=O)C21` (centres undefined), the Kd is reported as > 4 mM (inactive).
`Cc1cc(C)nc(/N=C(/N)N2CCOCC2)n1` was tested, and the Kd was > 4 mM (inactive).
`COC(=O)CC1C(C)(C)C(OC(C)=O)[C@@H]2[C@@H](OC(C)=O)[C@]34O[C@@]2(O)[C@]1(C)C3CC[C@]1(C)C4=CC(=O)O[C@H]1c1ccoc1` (some centres undefined) was tested, and the Kd was > 4 mM (inactive).
In the case of `CCOC(=O)C1CCNCC1`, the Kd is reported as > 4 mM (inactive).
With `CC(C)(C)CC(=O)NNC(=O)c1cnccn1` the Kd was > 4 mM (inactive).
In the case of `COC(=O)Nc1ccc2ncn(C)c(=O)c2c1`, the Kd is reported as > 4 mM (inactive).
For `Cc1[nH]ccc2c1[nH]c1cc(=O)ccc12`, the Kd was > 4 mM (inactive).
In the case of `O=C1NC2NC(=O)N(c3ccccc3)C2N1` (centres undefined), the Kd is reported as > 4 mM (inactive).
For `COC(=O)c1cc2cc(N)ccc2s1`, the Kd was > 4 mM (inactive).
In the case of `NC1Cc2ccccc2C1`, the Kd is reported as > 4 mM (inactive).
With `Cc1cc(C)n2nc(N)nc2n1` the Kd was > 4 mM (inactive).
`C#CCCCCCCCCCCCC(O)CC(O)COC(C)=O` (centres undefined) was tested, and the Kd was > 4 mM (inactive).
With `O=C1CSC(=Nc2cc(Cl)ccc2Cl)N1` the Kd was > 4 mM (inactive).
`c1ccc2c(NC3=NCCS3)cccc2c1` was tested, and the Kd was > 4 mM (inactive).
`Cc1ccc(SCc2cc(=O)n3[nH]c(C)nc3n2)cc1` was tested, and the Kd was > 4 mM (inactive).
`c1ccc(CCc2nc(-c3cccnc3)no2)cc1` was tested, and the Kd was > 4 mM (inactive).
With `O=C(O)c1coc2c1C(=O)CCC2` the Kd was > 4 mM (inactive).
In the case of `Nn1c(CN2CCCCC2)nc2ccccc2c1=O`, the Kd is reported as > 4 mM (inactive).
`Fc1ccc(NC2=NCCS2)cc1Cl` was tested, and the Kd was > 4 mM (inactive).
For `CCCCCCCCCCCCCCC(C(=O)O)C(O)(CC(=O)OC)C(=O)O` (centres undefined), the Kd was > 4 mM (inactive).
In the case of `CNC(=O)c1cccc(NC(=S)NC)c1`, the Kd is reported as > 4 mM (inactive).
With `CC(C)(O)CC[C@@H](O)[C@](C)(O)C1CC[C@@]2(O)C3=CC(=O)C4C[C@@H](O)[C@@H](O)C[C@]4(C)C3CC[C@]12C` (some centres undefined) the Kd was > 4 mM (inactive).
For `O=c1[nH]c(N2CCOCC2)nc2ccccc12`, the Kd was > 4 mM (inactive).
With `CSc1nc(C)cc(Oc2ccc(=O)n(C)n2)n1` the Kd was > 4 mM (inactive).
With `OCC1COc2ccccc2O1` (centres undefined) the Kd was > 4 mM (inactive).
In the case of `O=C(O)C1CSC2(CCCCC2)N1` (centres undefined), the Kd is reported as > 4 mM (inactive).
`O=C1NC(=S)NC(=O)C1=Cc1cccs1` was tested, and the Kd was > 4 mM (inactive).
In the case of `Cc1onc(-c2c(F)cccc2Cl)c1C(N)=O`, the Kd is reported as > 4 mM (inactive).
With `CCOC(=O)C1CCN(Cc2ccccc2)CC1=O` (centres undefined) the Kd was > 4 mM (inactive).
With `O=c1ccn(Cc2ccccc2)c(=O)[nH]1` the Kd was > 4 mM (inactive).
For `COc1c2c(cc3c1OCO3)C13C=C[C@H](OC)CC1N(C2)CC3O` (some centres undefined), the Kd was > 4 mM (inactive).
With `c1ccc(-n2ncc3c(NCc4ccco4)ncnc32)cc1` the Kd was > 4 mM (inactive).
In the case of `N[C@@H](C(=O)O)[C@@H](O)[C@H](O)[C@H](O)CO`, the Kd is reported as > 4 mM (inactive).
For `CSc1nnc(-c2ccccc2NC(C)=O)o1`, the Kd was > 4 mM (inactive).
For `O=C(Nc1cccc2ncccc12)c1cccnc1`, the Kd was > 4 mM (inactive).
For `c1ccc2nc3c(nc2c1)CCc1nonc1-3`, the Kd was > 4 mM (inactive).
In the case of `O=C(O)CCCNC(=O)c1ccccc1C(=O)O`, the Kd is reported as > 4 mM (inactive).
With `O=C1NC(=O)C(Cc2cccs2)C(=O)N1` the Kd was > 4 mM (inactive).
`CCOC(=O)c1c(C)[nH]c2ccc(O)cc12` was tested, and the Kd was > 4 mM (inactive).
In the case of `FC(F)(F)c1cc(-c2ccco2)nc(N2CCOCC2)n1`, the Kd is reported as > 4 mM (inactive).
In the case of `C=C1C(=O)O[C@@H]2C3OC3(C)CC/C=C(\C)CC[C@@H]12` (some centres undefined), the Kd is reported as > 4 mM (inactive).
For `NC1C2CC3CC1CC(O)(C3)C2` (centres undefined), the Kd was > 4 mM (inactive).
For `NCCCCN`, the Kd was > 4 mM (inactive).
With `Cc1cccc(N2C(=O)CCC2=O)n1` the Kd was > 4 mM (inactive).
In the case of `Cc1cc(NC(=O)c2cnn3cccnc23)no1`, the Kd is reported as > 4 mM (inactive).
`N/N=C/c1cccnc1` was tested, and the Kd was > 4 mM (inactive).
`Cc1cc(C)n(C2CCS(=O)(=O)C2)n1` (centres undefined) was tested, and the Kd was > 4 mM (inactive).
`CC1(C)N=C2C(=[N+]1[O-])CCC/C2=N\O` was tested, and the Kd was > 4 mM (inactive).
In the case of `O=C(O)c1ccc(-c2cccs2)cc1`, the Kd is reported as > 4 mM (inactive).
`NC1=NC(=O)C(CC(=O)Nc2ccccc2F)S1` (centres undefined) was tested, and the Kd was > 4 mM (inactive).
For `COc1ccc(/C=C2/SC(N)=NC2=O)c(OC)c1`, the Kd was > 4 mM (inactive).
In the case of `COC(=O)c1ccccc1C`, the Kd is reported as > 4 mM (inactive).
In the case of `CSc1ncc(CO)n1Cc1ccccc1`, the Kd is reported as > 4 mM (inactive).
With `CC(=O)c1cnc2nc(C(F)(F)F)nn2c1C` the Kd was > 4 mM (inactive).
With `CCC(C)C(=O)O[C@H]1[C@H](O)C2C(CN3CC(C)CCC3[C@@]2(C)O)C2C[C@]34O[C@]5(O)C(OC(=O)C(C)(O)CC)CC[C@@]3(C)C5C(OC(C)=O)[C@@H](OC(C)=O)C4[C@@]21O` (some centres undefined) the Kd was > 4 mM (inactive).
With `NC(=O)C1CC2C=CC1C2` (centres undefined) the Kd was > 4 mM (inactive).
For `CC[C@H](CCC(C)[C@H]1CCC2C3CCC4C[C@@H](O)CC[C@]4(C)C3CC[C@@]21C)C(C)C` (some centres undefined), the Kd was > 4 mM (inactive).
In the case of `OCc1cc2ccccc2o1`, the Kd is reported as > 4 mM (inactive).
For `OCc1cccc2c1OCCO2`, the Kd was > 4 mM (inactive).
In the case of `O=C1Cn2c(nc3ccccc32)N1c1ccccc1F`, the Kd is reported as > 4 mM (inactive).
With `COC(=O)[C@@]1(C)CCC[C@]2(C)c3ccc(O)c(C(C)C)c3CCC12` (some centres undefined) the Kd was > 4 mM (inactive).
In the case of `CC(=O)Nc1ccc(Oc2nc(C)cc(C)n2)cc1`, the Kd is reported as > 4 mM (inactive).
For `Cc1nnc2sc(-c3ccco3)nn12`, the Kd was > 4 mM (inactive).
With `COc1cc(C(=O)O[C@H]2CC[C@@]3(C)[C@@H]4CC[C@H]5[C@]6(O)C[C@H](O)[C@@]7(O)[C@@H](CN8C[C@@H](C)CC[C@H]8[C@@]7(C)O)[C@]6(O)C[C@@]53OC24O)cc(OC)c1OC` the Kd was > 4 mM (inactive).
With `Cc1ccc2nc(NC(=O)CN3CCOCC3)sc2c1` the Kd was > 4 mM (inactive).
For `COc1cccc(Oc2ccc(N)cc2)c1`, the Kd was > 4 mM (inactive).
`Cn1c2c(c(=O)n(C)c1=O)CN(Cc1ccco1)CN2` was tested, and the Kd was > 4 mM (inactive).
`NC[C@H]1O[C@H](O[C@H]2[C@H](O)[C@@H](O[C@H]3O[C@H](CO)[C@@H](O)[C@H](N)[C@H]3O)[C@H](N)C[C@@H]2N)[C@H](N)[C@@H](O)[C@@H]1O` was tested, and the Kd was > 4 mM (inactive).
For `NC(=O)CSc1nc2ncnc(N)c2[nH]1`, the Kd was > 4 mM (inactive).
With `Cc1cc(N)n(-c2ccccc2)n1` the Kd was > 4 mM (inactive).
In the case of `CC(=O)NCC1(c2ccccc2)CCOCC1`, the Kd is reported as > 4 mM (inactive).
For `CC1(C)C(=O)C=C[C@@]2(C)C1CC(=O)[C@]1(C)C2CC[C@@]2(C)[C@H](c3ccoc3)OC(=O)[C@H]3O[C@]321` (some centres undefined), the Kd was > 4 mM (inactive).
With `Cc1cc(C)n(S(=O)(=O)c2cc(C)c(C)cc2C)n1` the Kd was > 4 mM (inactive).
In the case of `CN(c1ccccc1C(=O)N1CCOCC1)S(C)(=O)=O`, the Kd is reported as > 4 mM (inactive).
In the case of `OC1CCCN(Cc2ccccc2)C1` (centres undefined), the Kd is reported as > 4 mM (inactive).
In the case of `O=C1NC(=S)N/C1=C\c1cccnc1`, the Kd is reported as > 4 mM (inactive).
`O=C1C2CC=C(Cl)CC2C(=O)N1c1ccccc1O` (centres undefined) was tested, and the Kd was > 4 mM (inactive).
In the case of `NC12CC3CC(C1)CC(C(=O)O)(C3)C2`, the Kd is reported as > 4 mM (inactive).
For `Cc1sc(N)c(C(N)=O)c1C`, the Kd was > 4 mM (inactive).
In the case of `Cc1nc2cc(NC(=O)Nc3nccs3)ccc2n1C`, the Kd is reported as > 4 mM (inactive).
With `Cc1[nH]c2ccccc2c(=O)c1CO` the Kd was > 4 mM (inactive).
`CCC(C)C(=O)O[C@@H]1C[C@@]2(C)[C@H](c3ccoc3)OC(=O)CC23OC2(C)O[C@]14[C@]1(C)[C@@H](CC(=O)OC)C5(C)CC1(O)[C@](O)(C5OC(=O)C1(C)OC1C)[C@@H](OC(C)=O)[C@]34O2` (some centres undefined) was tested, and the Kd was > 4 mM (inactive).
With `CN(C)S(=O)(=O)N1CCc2ccccc21` the Kd was > 4 mM (inactive).
For `COc1cc(C(=O)NCC2CCCO2)cc(OC)c1OC` (centres undefined), the Kd was > 4 mM (inactive).
For `CC1=C(C(N)=O)C(c2ccccc2)NC(=O)N1` (centres undefined), the Kd was > 4 mM (inactive).
For `COc1ccc(/C=C2/C(=O)N=C(N)N2C)cc1OC`, the Kd was > 4 mM (inactive).
For `Cc1oc(-c2ccccc2)cc1C(N)=O`, the Kd was > 4 mM (inactive).
In the case of `CC(=O)NC1(NC(C)=O)CCN(C)CC1`, the Kd is reported as > 4 mM (inactive).

From PubChem BioAssay AID1549 (Sanford-Burnham Center for Chemical Genomics, 2009)
